Our source for the IC50 cytotoxicity (DAPI nuclear signal decrease) and IC50 values is PubChem BioAssay AID651630 (Sanford-Burnham Center for Chemical Genomics, 2012).

For one test, the system named is DAPI. In words: triacylglycerol accumulation inhibitor potency, dose response, cell-based, panel, Nile Red and DAPI fluorescence, H9c2 (AID 651630).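 Also: cells exposed to compound overnight before fixation and staining.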 The conditions noted are these: H9c2 cells, DAPI nuclear fluorescence (cytotoxicity counter-readout), oleic acid.
Another test deals with TAG. The test is described as above. The conditions noted are these: H9c2 cells, Nile Red TAG fluorescence, oleic acid.

Calls of active or inactive are those of the source.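 The calls were made as follows: active = lipid-stain IC50 at or below a set limit, with nuclear-stain toxicity IC50 at least five times higher; inactive = the rest.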 Where only a bound is given, the exact number is not on record here.

Take `CSc1cc(-c2ccccc2)n(Cc2c(Cl)cccc2Cl)c(=O)c1C#N`: the IC50 cytotoxicity (DAPI nuclear signal decrease) in the test on DAPI (mean of runs) is > 25 µM (inactive); in the test with DAPI (run 1), more than 25 µM; in the test with DAPI (run 2) it was more than 25 µM. Further, the values for the concentration for half-maximal inhibition (IC50) in the test on TAG (run 1) and in the test on TAG (run 2) were 17.9 µM and more than 25 µM, respectively.

As to `C[C@@H]1CN([C@@H](C)CO)C(=O)c2cccc(NC(=O)Nc3ccc(F)cc3)c2O[C@@H]1CN(C)Cc1ccc(Oc2ccccc2)cc1`, the IC50 cytotoxicity (DAPI nuclear signal decrease) in the test with DAPI (run 1) and with DAPI (run 2) was more than 25 µM in each case. Further, the half-maximal inhibitory concentration (IC50) (usually the concentration needed to halve the response being measured) with TAG (mean of runs) is 1.42 µM; in the test on TAG (run 1), 1.71 µM; with TAG (run 2), 1.14 µM.

Take `Cc1ccc(C(=O)Nc2cc(C)c(OCC(=O)N3CCOCC3)c(C)c2)cc1`: the values for the IC50 cytotoxicity (DAPI nuclear signal decrease) with DAPI (mean of runs), with DAPI (run 1) and with DAPI (run 2) were > 25 µM (inactive), more than 25 µM and more than 25 µM, respectively. Moreover, the IC50 was > 25 µM (inactive) in the test on TAG (mean of runs), more than 25 µM in the test on TAG (run 1) and more than 25 µM in the test on TAG (run 2).

On to `CCCCOc1ccccc1NC(=O)Cn1c(-c2nonc2N)nc2ccccc21`, for which the IC50 cytotoxicity (DAPI nuclear signal decrease) in the test on DAPI (mean of runs) is > 25 µM (inactive); with DAPI (run 1), more than 25 µM; in the test on DAPI (run 2), more than 25 µM. Further, the IC50 with TAG (mean of runs) is > 25 µM (inactive); in the test on TAG (run 1) it was more than 25 µM; in the test with TAG (run 2), more than 25 µM.

With `CC(C)c1ccc(Nc2ncc3c(n2)CCN(C(=O)Nc2ccc(F)c(Cl)c2)C3)cc1`, the IC50 cytotoxicity (DAPI nuclear signal decrease) in the test with DAPI (run 1) and in the test with DAPI (run 2) was more than 25 µM throughout. Further, the concentration for half-maximal inhibition (IC50) with TAG (mean of runs) was 4.65 µM; in the test on TAG (run 1), 2.95 µM; in the test on TAG (run 2), 6.36 µM.

`CCCc1[nH]n(-c2ccc([N+](=O)[O-])cc2)c(=O)c1C=NCCc1c[nH]c2ccccc12`: the figures for the IC50 cytotoxicity (DAPI nuclear signal decrease) in the test on DAPI (mean of runs), in the test on DAPI (run 1) and in the test on DAPI (run 2) were > 25 µM (inactive), more than 25 µM and more than 25 µM, respectively. Further, the results for the IC50 with TAG (mean of runs), in the test on TAG (run 1) and in the test with TAG (run 2) were 11.9 µM, 10.3 µM and 13.6 µM, respectively.

Take `CC(C)(C)OC(=O)N(CCc1ccccc1)Cc1ccccc1OCc1cccc(NC(=O)/C=C/c2ccccc2)c1`: the IC50 cytotoxicity (DAPI nuclear signal decrease) was > 25 µM (inactive) in the test with DAPI (mean of runs), more than 25 µM in the test with DAPI (run 1) and more than 25 µM with DAPI (run 2). Besides, the results for the IC50 with TAG (mean of runs), in the test on TAG (run 1) and with TAG (run 2) were 15 µM, 21 µM and 8.93 µM, respectively.

With `O=C(CCC(=O)N1CCOc2ccc(Cl)cc21)NCCCN1CCC(Cc2ccccc2)CC1`, the IC50 cytotoxicity (DAPI nuclear signal decrease) with DAPI (mean of runs) was 15.1 µM (inactive); in the test with DAPI (run 1), 16 µM; in the test with DAPI (run 2), 14.2 µM. Also, the IC50 in the test with TAG (run 1) is more than 25 µM; with TAG (run 2) it was 9.91 µM.

As for `Cc1cc(NC(=O)c2cc(-c3ccncc3)nc3c(C)cccc23)no1`, the IC50 cytotoxicity (DAPI nuclear signal decrease) is > 25 µM (inactive) in the test on DAPI (mean of runs), more than 25 µM in the test on DAPI (run 1) and more than 25 µM in the test with DAPI (run 2). For the same molecule, the IC50 in the test with TAG (mean of runs) was 11.5 µM; in the test on TAG (run 1), 10.5 µM; in the test with TAG (run 2), 12.5 µM.

On to `Cc1occc1C(=O)NC(C)CCc1ccccc1` (stereo not drawn), for which the IC50 cytotoxicity (DAPI nuclear signal decrease) in the test on DAPI (mean of runs) is > 25 µM (inactive); with DAPI (run 1), more than 25 µM; in the test with DAPI (run 2) it was more than 25 µM. The results for the IC50 with TAG (mean of runs), in the test with TAG (run 1) and with TAG (run 2) were > 25 µM (inactive), more than 25 µM and more than 25 µM, respectively.

In the case of `Cc1nn(-c2cccc(Cl)c2)c2nc(-c3ccncc3)cc(C(=O)N3CCOCC3)c12`, the values for the IC50 cytotoxicity (DAPI nuclear signal decrease) in the test on DAPI (mean of runs), in the test on DAPI (run 1) and in the test with DAPI (run 2) were > 25 µM (inactive), more than 25 µM and more than 25 µM, respectively. Moreover, the results for the IC50 in the test on TAG (mean of runs), in the test on TAG (run 1) and with TAG (run 2) were > 25 µM (inactive), more than 25 µM and more than 25 µM, respectively.

Consider `CCc1ccc(/C=N/NC(=O)c2cc(C3CC3)nc3ccc(Br)cc23)s1`, for which the figures for the IC50 cytotoxicity (DAPI nuclear signal decrease) in the test on DAPI (mean of runs), with DAPI (run 1) and in the test with DAPI (run 2) were > 25 µM (inactive), more than 25 µM and more than 25 µM, respectively. Moreover, the IC50 in the test on TAG (mean of runs) is > 25 µM (inactive); in the test on TAG (run 1) it was more than 25 µM; with TAG (run 2) it was more than 25 µM.

`COc1ccc2sc(-c3ccc(N(C)C)cc3)c(C#CCCO)c2c1`: the values for the IC50 cytotoxicity (DAPI nuclear signal decrease) in the test with DAPI (mean of runs), in the test with DAPI (run 1) and with DAPI (run 2) were > 25 µM (inactive), more than 25 µM and more than 25 µM, respectively. For the same molecule, the IC50 in the test on TAG (mean of runs) is 8.86 µM; in the test on TAG (run 1), 7.52 µM; with TAG (run 2), 10.2 µM.

Turning to `COc1cc(C2=NOC(C(=O)NCc3cccs3)C2)cc(OC)c1OC` (stereo not drawn), the values for the IC50 cytotoxicity (DAPI nuclear signal decrease) with DAPI (mean of runs), in the test with DAPI (run 1) and with DAPI (run 2) were > 25 µM (inactive), more than 25 µM and more than 25 µM, respectively. The IC50 with TAG (mean of runs) is 13.7 µM; in the test on TAG (run 1), 17.3 µM; in the test on TAG (run 2) it was 10.1 µM.

For `c1ccc(Oc2nc(-c3ccccn3)nc3ccccc23)cc1`, the results for the IC50 cytotoxicity (DAPI nuclear signal decrease) with DAPI (mean of runs), in the test on DAPI (run 1) and in the test on DAPI (run 2) were > 25 µM (inactive), more than 25 µM and more than 25 µM, respectively. Moreover, the values for the IC50 in the test with TAG (mean of runs), with TAG (run 1) and in the test on TAG (run 2) were > 25 µM (inactive), more than 25 µM and more than 25 µM, respectively.

In the case of `NC(=O)c1cc(-c2ccccc2)nc(N2CCOCC2)n1`, the IC50 cytotoxicity (DAPI nuclear signal decrease) in the test on DAPI (mean of runs) is > 25 µM (inactive); in the test with DAPI (run 1), more than 25 µM; in the test on DAPI (run 2), more than 25 µM. In addition, the IC50 with TAG (run 1) is more than 25 µM; with TAG (run 2) it was 20.3 µM.

Take `COc1cc(C(=O)N2CCN(c3cc(Cl)ccc3Cl)CC2)cc(OC)c1OC`: the figures for the IC50 cytotoxicity (DAPI nuclear signal decrease) in the test with DAPI (mean of runs), in the test with DAPI (run 1) and in the test on DAPI (run 2) were > 25 µM (inactive), more than 25 µM and more than 25 µM, respectively. Further, the IC50 in the test on TAG (mean of runs) is > 25 µM (inactive); in the test with TAG (run 1), more than 25 µM; in the test on TAG (run 2), more than 25 µM.

For the molecule `O=C(c1ccoc1)N1CCN(c2cc(-c3ccncc3)nc3cc(-c4cccc(Cl)c4)nn23)CC1`, the IC50 cytotoxicity (DAPI nuclear signal decrease) in the test on DAPI (mean of runs) is > 25 µM (inactive); with DAPI (run 1), more than 25 µM; with DAPI (run 2), more than 25 µM. Besides, the IC50 is more than 25 µM in the test on TAG (run 1) and 23.6 µM in the test on TAG (run 2).

Take `Cc1cc(N2CCN(Cc3cn(C)nc3-c3cccc(Cl)c3)CC2)cc(C)n1`: the IC50 cytotoxicity (DAPI nuclear signal decrease) in the test on DAPI (mean of runs) is > 25 µM (inactive); in the test with DAPI (run 1), more than 25 µM; with DAPI (run 2) it was more than 25 µM. Moreover, the IC50 in the test with TAG (run 1) is more than 25 µM; with TAG (run 2), 22.5 µM.

Consider `COc1ccc(-c2sc3ccc(N4CCOCC4)cc3c2C#CC(C)(C)O)cc1`, for which the IC50 cytotoxicity (DAPI nuclear signal decrease) in the test on DAPI (mean of runs) was > 25 µM (inactive); in the test with DAPI (run 1), more than 25 µM; with DAPI (run 2), more than 25 µM. Moreover, the figures for the IC50 with TAG (mean of runs), in the test with TAG (run 1) and in the test on TAG (run 2) were > 25 µM (inactive), more than 25 µM and more than 25 µM, respectively.

As to `c1ccc(-c2nc(N3CCOCC3)cc(N3CCOCC3)n2)cc1`, the IC50 cytotoxicity (DAPI nuclear signal decrease) in the test on DAPI (mean of runs) was > 25 µM (inactive); with DAPI (run 1), more than 25 µM; in the test with DAPI (run 2), more than 25 µM. The IC50 was 9.99 µM with TAG (mean of runs), 5.81 µM in the test with TAG (run 1) and 14.2 µM in the test with TAG (run 2).

Regarding `CN(C)CCCn1c(SCC(=O)Nc2nc(-c3cccc(Br)c3)cs2)nc2ccccc2c1=O`, the IC50 cytotoxicity (DAPI nuclear signal decrease) is > 25 µM (inactive) in the test with DAPI (mean of runs), more than 25 µM with DAPI (run 1) and more than 25 µM in the test on DAPI (run 2). Also, the results for the IC50 in the test on TAG (mean of runs), in the test on TAG (run 1) and in the test on TAG (run 2) were 9.78 µM, 10.1 µM and 9.46 µM, respectively.

For the molecule `Cn1nnnc1Sc1ncnc2scc(-c3cccc(S(C)(=O)=O)c3)c12`, the IC50 cytotoxicity (DAPI nuclear signal decrease) in the test on DAPI (mean of runs) is > 25 µM (inactive); in the test on DAPI (run 1), more than 25 µM; with DAPI (run 2) it was more than 25 µM. Further, the IC50 with TAG (mean of runs) was > 25 µM (inactive); in the test on TAG (run 1), more than 25 µM; in the test with TAG (run 2), more than 25 µM.

On to `COc1cc(C#Cc2c(-c3cncn3C)n(C)c3ccc(-c4cnc(N5CCOCC5)nc4)cc23)cc(OC)c1`, for which the IC50 cytotoxicity (DAPI nuclear signal decrease) was > 25 µM (inactive) in the test on DAPI (mean of runs), more than 25 µM in the test on DAPI (run 1) and more than 25 µM with DAPI (run 2). Moreover, the IC50 in the test with TAG (mean of runs) was 11 µM; in the test with TAG (run 1), 14.3 µM; with TAG (run 2) it was 7.65 µM.

As to `COc1cccc(C2c3c(C)nn(-c4ccc([N+](=O)[O-])cc4)c3N=C3C(=O)Nc4ccccc4N32)c1` (stereo not drawn), the figures for the IC50 cytotoxicity (DAPI nuclear signal decrease) in the test with DAPI (mean of runs), with DAPI (run 1) and in the test on DAPI (run 2) were > 25 µM (inactive), more than 25 µM and more than 25 µM, respectively. The IC50 was 7.79 µM in the test on TAG (mean of runs), 7.32 µM in the test on TAG (run 1) and 8.26 µM in the test on TAG (run 2).

Take `O=c1c2c3nc4ccccc4nc3n(/N=C/c3ccccn3)c2ncn1-c1ccccc1`: the IC50 cytotoxicity (DAPI nuclear signal decrease) in the test with DAPI (run 1) and in the test with DAPI (run 2) was more than 25 µM in each case. For the same molecule, the IC50 in the test on TAG (mean of runs) is 2.48 µM; with TAG (run 1) it was 3.37 µM; with TAG (run 2), 1.59 µM.

Regarding `Cc1cccc(-c2ccc3[nH]c4c(c3c2)CCN2C[C@@H]([C@H](C)O)[C@@H](N(C)C(=O)Nc3ccc(F)cc3)C[C@@H]42)c1`, the IC50 cytotoxicity (DAPI nuclear signal decrease) in the test with DAPI (mean of runs) is > 25 µM (inactive); in the test with DAPI (run 1) it was more than 25 µM; in the test with DAPI (run 2), more than 25 µM. Further, the IC50 with TAG (run 1) is 18 µM; with TAG (run 2), more than 25 µM.
